# Experimental data from ChEMBL document CHEMBL5726146, “Sulfone amide linked benzothiazole inhibitors of endothelial lipase” (2019).
# pIC50: −log10 of the molar value.
# Molecular target: T1, Endothelial lipase (Homo sapiens, UniProt Q9Y5X9)
# T1 sequence (Q9Y5X9 whole entry): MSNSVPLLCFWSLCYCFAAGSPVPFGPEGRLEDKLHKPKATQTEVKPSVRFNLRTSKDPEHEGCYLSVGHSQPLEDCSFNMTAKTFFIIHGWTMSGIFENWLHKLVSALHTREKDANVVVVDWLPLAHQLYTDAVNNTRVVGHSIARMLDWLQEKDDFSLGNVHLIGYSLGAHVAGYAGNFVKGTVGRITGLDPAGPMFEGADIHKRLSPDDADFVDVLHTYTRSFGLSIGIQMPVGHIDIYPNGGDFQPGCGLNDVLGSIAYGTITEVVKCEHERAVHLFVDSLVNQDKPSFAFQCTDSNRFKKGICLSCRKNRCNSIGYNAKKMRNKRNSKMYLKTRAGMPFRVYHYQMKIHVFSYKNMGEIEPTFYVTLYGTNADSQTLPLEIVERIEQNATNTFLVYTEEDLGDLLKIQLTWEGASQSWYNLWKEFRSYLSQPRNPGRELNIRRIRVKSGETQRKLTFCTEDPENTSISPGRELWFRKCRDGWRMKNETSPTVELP
# Experiment: Biological Activity: Endothelial lipase (EL) and hepatic lipase (HL) activities were measured using a fluorescent substrate, A10070, (Invitrogen, CA) doped into an artificial vesicle containing DMPG (Avanti Polar Lipids) as the excipient. Vesicles were prepared by combining 571 μL of 29 mM DMPG in a 1:1 mixture of MeOH and CHCl3 with 2000 μL of 1 mM A10070 in a 1:1 mixture of MeOH and CHCl3. The mixture was dried under nitrogen in multiple vials then resuspended in 20 mL total volume of 50 mM HEPES pH 8.0 buffer containing 50 mM NaCl and 0.2 mM EDTA. The sample was allowed to sit at room temperature for 15 min and then was sonicated 3×4 mins on ice with a Branson Sonicator using duty cycle 1. This preparation provides vesicles with a mole fraction of 0.11 for the FRET substrate.The enzymatic assay was measured using 384-well white Optiplates. Each well contained 20 μL of assay buffer (50 mM HEPES pH 8.0, 50 mM NaCl and 1 mM CaCl2) and 0.25 μL of a DMSO solution containing a compound of interest. EL or HL (10 μL) was added and allowed to incubate with the compound for 30 min at 37° C. The source of EL was conditioned media obtained from HT-1080 cells that were transformed using RAGE technology (Athersys) to overexpress endogenous EL, and HL was partially purified from conditioned media obtained from COS cells overexpressing HL. The reaction was started by the addition of 10 μL of a 1:10 dilution of vesicles. The final total reaction volume was […]. The reaction rates were measured on a Gemini plate reader with an excitation wavelength of 490 nm and an emission wavelength of 530 nm. Readings were taken over a period of 60 minutes, and the slope between 300 and 900 secs of the readout was used to calculate the rate of the reaction.
compound,measurement,value
COCCS(=O)(=O)C(C(=O)NCC(=O)NC1CC1)c1nc2ccc(-c3ccc(C(N)=O)c(Cl)c3)cc2s1 (configuration not stated),pIC50,7.48
COCCS(=O)(=O)C(C(=O)NCC(=O)NC1CC1)c1nc2c(F)cc(-c3cccnc3F)cc2s1 (configuration not stated),pIC50,6.97
CC(=O)Nc1ccc(-c2cc3sc(C(C(=O)NCC(=O)NC4CC4)S(C)(=O)=O)nc3cc2F)cc1 (configuration not stated),pIC50,8.05
C[C@H]1CN(C(=O)c2ccc(-c3ccc4nc(C(C(=O)NCC(=O)NC5CC5)S(C)(=O)=O)sc4c3)cc2)CCO1 (some centres not stated),pIC50,7.51
CS(=O)(=O)C(C(=O)NCC(=O)NC1CC1)c1nc2cc(F)c(-c3ccc(=O)n(-c4ccccc4)c3)cc2s1 (configuration not stated),pIC50,8.22
CS(=O)(=O)C(C(=O)NCC(=O)NC1CC1)c1nc2cc(F)c(-c3ccc(C(=O)NCCc4ccccc4)cc3)cc2s1 (configuration not stated),pIC50,9.00
CS(=O)(=O)C(C(=O)NCC(=O)NC1CC1)c1nc2cc(-c3ccccc3)c(F)cc2s1 (configuration not stated),pIC50,8.40
COCCS(=O)(=O)C(C(=O)NCC(=O)NC1CC1)c1nc2cc(-c3ccc(OC(C)C)nc3)ccc2s1 (configuration not stated),pIC50,7.96
Cn1nccc1-c1cc2sc(C(C(=O)NCC(=O)NC3CC3)S(C)(=O)=O)nc2cc1F (configuration not stated),pIC50,7.59
CS(=O)(=O)C(C(=O)NCC(=O)NC1CC1)c1nc2cc(F)c(-c3ccc4c(c3)CCCN4C(=O)Cc3c(F)cccc3F)cc2s1 (configuration not stated),pIC50,8.15
O=C(CNC(=O)C(c1nc2cc(F)c(-c3ccc(F)nc3)cc2s1)S(=O)(=O)c1ccccc1F)NC1CC1 (configuration not stated),pIC50,7.24
COCCS(=O)(=O)C(C(=O)NCC(=O)NC1CC1)c1nc2cc(F)c(-c3ccc4c(c3)CCN4)cc2s1 (configuration not stated),pIC50,8.52
O=C(CNC(=O)C(c1nc2ccc(-c3ccc(F)nc3)cc2s1)S(=O)(=O)C1CCOCC1)NC1CC1 (configuration not stated),pIC50,7.33
COCCS(=O)(=O)C(C(=O)NCC(=O)NC1CC1)c1nc2cc(-c3ccc(C)nc3)ccc2s1 (configuration not stated),pIC50,7.47
O=C(CNC(=O)C(c1nc2ccc(-c3cccnc3F)cc2s1)S(=O)(=O)c1ccccc1)NC1CC1 (configuration not stated),pIC50,6.99
COCCS(=O)(=O)C(C(=O)NCC(=O)NC1CC1)c1nc2ccc(-c3ccc(N4CCCC4)nc3)cc2s1 (configuration not stated),pIC50,6.93
COCCS(=O)(=O)C(C(=O)NCC(=O)NC1CC1)c1nc2ccc(-c3cccnc3C(F)(F)F)cc2s1 (configuration not stated),pIC50,7.43
